row,Structure (SMILES),melting point [°C]
1,Cc1ccc(Cn2nc(-c3cc(C(C)(C)C)c(O)c(C(C)(C)C)c3)c3cccnc32)cc1,134 to 135
2,COC(=O)CCn1c(=O)n(CCN2CCN(c3ccc(OC)cc3)CC2)c(=O)c2cscc21,151 to 152
3,Cn1cc(C(=O)NCc2ccc(Cl)cc2)c(=O)c2cc(CN3CCOCC3)cc(C#CCn3ccnc3)c21,178 to 180
4,CCC1CC2C3CCC4=CC(=O)CCC4(CSC)C3CCC2(C)C1=O (stereo not given),83
5,FC(F)(F)c1cc(Cl)c(Oc2cc(C3CC3)[nH]n2)c(Cl)c1,119 to 121
6,CC1SC(=O)NN=C1c1ccc2c(c1)C1(CCCS1)C(=O)N2 (stereo not given),205
7,O=C1CC(c2cccc(Cl)c2)c2cc(C(=O)c3ccc(Cl)cc3)ccc2N1 (stereo not given),195
8,NC(=O)c1cccc(-c2cccc3oc(Cc4cccc(C(F)(F)F)c4)cc23)c1,159 to 160
9,O=C1CC(=C[N+](=O)[O-])Nc2ccccc2N1c1ccccc1,231 to 234
10,C#CCOc1cc(-n2c(C#N)c(C#N)n(CCC)c2=O)c(F)cc1Cl,164 to 166
11,CC(=O)Nc1ccc(OC(F)F)c(OC(F)F)c1,65 to 67
12,CCOC(=O)c1ncc2c(c1COC)c1c(Cc3ccccc3Cl)cccc1n2S(=O)(=O)c1ccc(C)cc1,140 to 142
13,Cc1oc2ccc(Nc3ncccc3N)cc2c1C,168 to 170
14,NC(=O)C12CCCN(CCC1)C2,172 to 175
15,Cc1cc2c3c(ccn3-c3ccccc3C(N3CCN(C)CC3)=N2)c1,167 to 168
16,c1coc(-c2nc(NCC3CC3)cc(-n3cccn3)n2)c1,101 to 102
17,Cc1ccc(S(=O)(=O)Nc2ccc(C#N)cc2Cl)cc1,186 to 187
18,Cc1cc(/C=C/C(=O)O)c(C)n1-c1ccc(C(=O)N(C)C)cc1,182 to 184
19,CCOC(=O)c1cccc(CSc2nc(-c3ccc(OC)cc3)c(-c3ccc(OC)cc3)[nH]2)c1,147 to 149
20,Cc1ccc(NC(=O)c2cccc(N(C)C)c2)cc1NC(=O)c1cccc(N(C)S(C)(=O)=O)c1,168 to 169
21,O=C1NC(=O)C(=Cc2cc(O)c(O)c([N+](=O)[O-])c2)C(=O)N1,269 to 272
22,O=C1c2c(c(=O)n3nc(-c4ccccc4)cc3n2CC(=NO)c2ccccc2)CN1C1CCCCC1,> 280
23,O=c1[nH]c2ccccc2n1CCCCN1CCC(O)(c2ccc(Cl)cc2)CC1,161
24,O=C(c1ccc(F)cc1)N1CCC[C@H](c2nc(-c3cscn3)no2)C1,118 to 120
25,Nc1nc2ccccc2c2c1nc1n2C(COCc2ccccc2)COC1 (stereo not given),185 to 186

row,Structure (SMILES),melting point [°C]
1,Cc1cc2c(/C=C/C(=O)OCc3ccccc3)cccc2[nH]1,135 to 136
2,COc1nc(C)nc(NC(=O)NS(=O)(=O)c2sccc2C2OCCO2)n1,164 to 166
3,CON(C)C(=O)c1cc2c(s1)CCCC2,36 to 37
4,CC(C(N)=O)c1ccc2c(c1)C(=O)Cc1ccc(Cl)cc1S2 (stereo not given),207 to 208
5,[N-]=[N+]=NCC(=O)Nc1ccc(S(=O)(=O)c2ccc(F)cc2)cc1,181 to 184
6,CSc1nc(CC2CCN(c3ccc(C(C)(C)C)cc3)CC2)nc(C(=O)NCC(=O)O)c1O,135 to 136
7,COc1cc(C=O)cc2c1OCCC2,81
8,CCCOc1ccc2c(c1)C(OS(=O)(=O)F)=C(C(=O)OC)[C@H]2c1ccc2c(c1)OCO2,160 to 161
9,CC(=O)NN[C@@H]1c2cc(C#N)ccc2OC(C)(C)[C@H]1O (relative stereo),209 to 210
10,CNc1nc(-c2cccc(CCc3ccccc3)c2)c2cc(OC)c(OC)cc2n1,95 to 97
11,COc1ccc(CNc2nc(OCc3ccccn3)ncc2C(=O)O)cc1Cl,201 to 203
12,COC(=O)c1ccc(Cl)c(Cl)c1NS(C)(=O)=O,100 to 102
13,O=CNCc1cccc(-c2ccc(Br)cc2)n1,115 to 119
14,C#CCOc1cc(-n2nc(C(C)(C)C)oc2=O)c(F)cc1Cl,72 to 73
15,COC1C=C(c2ccc(C#N)cc2)C(OC)O1 (stereo not given),71 to 72
16,CNC(=O)CC(O)(c1ccccc1)c1ccc2nc(N)n(S(=O)(=O)C(C)C)c2c1 (stereo not given),92 to 95
17,Fc1cccc(Cl)c1-c1c(Cl)cc(-c2ccccn2)nc1Cl,45
18,CCc1cc(Cl)cc2[nH]c(C(=O)O)cc(=O)c12,282 to 283
19,COc1cccc(CC(=O)O)c1OCCCc1cc(OC(C)C)nn1Cc1ccc(C(F)(F)F)cc1,116 to 117
20,COc1ccc(S(=O)(=O)C2(C(=O)O)CCN(CCCOc3ccccc3)CC2)cc1,101
21,COC(=O)c1ccc2c(c1)CCN2C(=O)OC(C)(C)C,107 to 108
22,Cc1c(OCCCO)ccnc1CO,65 to 70
23,COc1ccc(N2CCN(c3ccc(-n4c(C)n[nH]c4=O)cn3)CC2)cc1,251 to 252
24,Cn1ncc(C(=O)N2CC(F)C2)c1C(=O)Nc1ccn2nc(-c3ccccc3)nc2c1,259 to 262
25,CC(C)[C@H](NC(=O)OCc1ccccc1)C(=O)N(CC(=O)O)C1CCCCCC1,48 to 51

# Source: a melting point compilation (Tetko et al.; mined from patent text by program, amines drawn as free bases though some values may be those of a salt)
